Reference: US10967078B2, “Radiolabelled mGluR2 PET ligands” (Janssen Pharmaceutica NV, priority 2014, dated 2021)

Columns and labels:
mGluR2 [1] = biological target: T1, mGluR2 (Rattus norvegicus, UniProt P31421); assay: In vitro autoradiography binding on normal female Wistar rat brain sections
T1 construct: horizontal sections of mGluR2 KO and WT mouse brain and of normal female Wistar rat brain; from tissue; host or cells: normal female Wistar rat brain sections, 20 µm
Description: (§1) In vitro autoradiography studies were performed on horizontal sections of mGluR2 KO and WT mouse brain and of normal female Wistar rat brain (20 μm). The sections were preincubated in 50 mM Tris-HCl (MgCl2 2 mM, CaCl2 2 mM; pH 7.0) for 10 min (two times) at room temperature and dried. Next, the brain sections were incubated with tracer [^11C]-2, [^11C]-5, [^11C]-4, [^11C]-1 or [^18F]-3 diluted in the same Tris-HCl buffer as used for the preincubation additionally containing 0.1% BSA or with this tracer solution in the presence of 10 μM Co. No. 2 or Co. No. 1. The mouse brain sections were incubated with 17 kBq of carbon-11 labeled tracer and 1.7 kBq of fluorine-18 labeled tracer. For the rat brain sections this was 44 kBq of carbon-11 labeled tracer and 0.44 kBq of fluorine-18 labeled tracer. After 30 min of incubation, the brain sections were washed three times for 5 min in ice-cold Tris-HCl 50 mM ((MgCl2 2 mM, CaCl2 2 mM; pH 7.0+0.1% BSA buffer). After a quick dip in purified ice-cold water, the slides were dried. Autoradiograms were obtained by exposing the slides overnight to a high-performance phosphor storage screen (super-resolution screen; Perkin Elmer, Waltham, USA). The screens were read using a Cyclone Plus system (Perkin Elmer) and analysed using Optiquant software (Perkin Elmer). The radioactivity concentration in the autoradiograms was expressed in digital light units (DLU)/mm^2.
(§2) To obtain additional information on the specificity of the tracer binding to mGluR2, in vitro autoradiography binding studies were performed on mGluR2 KO and WT mouse brain sections and on normal rat brain sections in presence or absence of a high concentration of mGluR2 NAM compounds (Co. No. 1 or Co. No. 2).

mGluR2 [2] = biological target: T2, mGluR2 (Mus musculus, UniProt Q14BI2); assay: In vitro autoradiography binding on mGluR2 KO and WT mouse brain sections
T2 construct: horizontal sections of mGluR2 KO and WT mouse brain and of normal female Wistar rat brain; from tissue; host or cells: mouse brain sections (WT and mGluR2 KO), 20 µm
Description: as §1, §2

[3] = self-blocking or blocking with Co. No. 1 (10 μM)
[4] = WT mouse cortex, block with 10 μM Co. No. 1
[5] = WT mouse striatum, block with 10 μM Co. No. 1

T1 sequence (P31421 19-872): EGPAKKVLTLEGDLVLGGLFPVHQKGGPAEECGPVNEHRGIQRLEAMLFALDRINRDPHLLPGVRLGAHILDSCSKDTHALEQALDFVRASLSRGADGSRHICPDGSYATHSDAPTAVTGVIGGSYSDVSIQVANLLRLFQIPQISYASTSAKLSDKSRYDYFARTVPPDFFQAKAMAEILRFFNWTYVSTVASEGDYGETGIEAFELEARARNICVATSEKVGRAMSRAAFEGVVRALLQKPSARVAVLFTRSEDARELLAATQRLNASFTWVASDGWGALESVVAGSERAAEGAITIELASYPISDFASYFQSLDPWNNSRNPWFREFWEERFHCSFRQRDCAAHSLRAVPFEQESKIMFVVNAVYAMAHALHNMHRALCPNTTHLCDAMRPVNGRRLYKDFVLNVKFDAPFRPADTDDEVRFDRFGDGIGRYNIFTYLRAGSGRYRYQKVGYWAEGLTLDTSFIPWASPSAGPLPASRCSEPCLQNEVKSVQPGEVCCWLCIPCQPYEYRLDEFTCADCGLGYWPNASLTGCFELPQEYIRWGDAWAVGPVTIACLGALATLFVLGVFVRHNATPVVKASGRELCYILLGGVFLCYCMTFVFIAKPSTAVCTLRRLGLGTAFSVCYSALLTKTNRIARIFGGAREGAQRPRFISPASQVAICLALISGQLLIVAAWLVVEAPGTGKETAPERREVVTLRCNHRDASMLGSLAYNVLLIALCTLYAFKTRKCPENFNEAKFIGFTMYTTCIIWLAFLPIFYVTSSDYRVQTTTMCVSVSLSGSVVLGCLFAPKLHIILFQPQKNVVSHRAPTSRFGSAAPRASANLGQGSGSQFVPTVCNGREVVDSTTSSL
T2 sequence (Q14BI2 19-872): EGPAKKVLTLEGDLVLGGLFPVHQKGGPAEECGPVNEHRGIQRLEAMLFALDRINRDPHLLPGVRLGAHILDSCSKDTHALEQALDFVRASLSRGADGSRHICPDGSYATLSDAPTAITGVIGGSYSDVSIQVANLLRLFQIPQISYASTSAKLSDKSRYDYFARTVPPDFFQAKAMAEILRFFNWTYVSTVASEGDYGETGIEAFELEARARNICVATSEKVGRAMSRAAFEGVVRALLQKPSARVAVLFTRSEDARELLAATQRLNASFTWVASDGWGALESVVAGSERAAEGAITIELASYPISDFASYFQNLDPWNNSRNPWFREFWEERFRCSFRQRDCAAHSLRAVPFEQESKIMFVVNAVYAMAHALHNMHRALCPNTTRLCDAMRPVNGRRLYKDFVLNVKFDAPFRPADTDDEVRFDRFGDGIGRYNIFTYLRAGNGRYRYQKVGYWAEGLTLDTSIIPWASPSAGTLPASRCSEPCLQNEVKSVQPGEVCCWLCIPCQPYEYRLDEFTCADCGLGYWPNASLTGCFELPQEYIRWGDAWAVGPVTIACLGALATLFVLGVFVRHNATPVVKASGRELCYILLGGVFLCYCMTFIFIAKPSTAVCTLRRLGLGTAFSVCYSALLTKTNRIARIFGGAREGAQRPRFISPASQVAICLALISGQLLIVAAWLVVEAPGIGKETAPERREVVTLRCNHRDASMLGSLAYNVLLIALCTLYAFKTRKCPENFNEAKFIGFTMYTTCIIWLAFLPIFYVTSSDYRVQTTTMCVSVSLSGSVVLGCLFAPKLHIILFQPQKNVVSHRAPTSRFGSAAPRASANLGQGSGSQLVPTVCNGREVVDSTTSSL

C[C@H]1CN(c2ccc(C(F)(F)F)cc2)C(=O)c2c(-c3ccnc(N[11CH3])c3)cnn21 [[^11C]-2]
total binding to normal rat brain sections (mGluR2 [1]; in words): high binding
decrease in binding in rat cortex (mGluR2 [1]; [3]): ~91%
decrease in binding in rat striatum (mGluR2 [1]; [3]): ~78%
Cortex WT (TB)/cortex WT (block Co. No. 1) (mGluR2 [2]; [4]): ~6.7
spec binding, cortex WT (mGluR2 [2]; [4]): (~85% spec
Striatum WT (TB)/striatum WT (block Co. No. 1) (mGluR2 [2]; [5]): ~8.3
spec binding, striatum WT (mGluR2 [2]; [5]): (~88% spec
difference in tracer binding to WT and mGluR2 KO mouse brain sections (mGluR2 [2]; in words): significant difference
Cortex WT (TB)/Cortex KO (TB) (mGluR2 [2]; total binding ratio, WT versus mGluR2 KO mouse brain sections, cortex): ~8.1
Striatum WT (TB)/Striatum KO (TB) (mGluR2 [2]; total binding ratio, WT versus mGluR2 KO mouse brain sections, striatum): ~4.8
